Assay results taken from US6617117B1, “MAP kinases: polypeptides, polynucleotides and uses thereof” (Medical Research Council, priority 1996, dated 2003).

Columns and labels:
SAPK4 = biological target: T1, SAPK4 (Homo sapiens, UniProt O15264); test: Inhibition of SAPK4, MBP phosphorylation (FIG. 9); type: biochemical; design: made in house; host or cells: E. coli BL21(DE3)
T1 sequence (O15264 1-365): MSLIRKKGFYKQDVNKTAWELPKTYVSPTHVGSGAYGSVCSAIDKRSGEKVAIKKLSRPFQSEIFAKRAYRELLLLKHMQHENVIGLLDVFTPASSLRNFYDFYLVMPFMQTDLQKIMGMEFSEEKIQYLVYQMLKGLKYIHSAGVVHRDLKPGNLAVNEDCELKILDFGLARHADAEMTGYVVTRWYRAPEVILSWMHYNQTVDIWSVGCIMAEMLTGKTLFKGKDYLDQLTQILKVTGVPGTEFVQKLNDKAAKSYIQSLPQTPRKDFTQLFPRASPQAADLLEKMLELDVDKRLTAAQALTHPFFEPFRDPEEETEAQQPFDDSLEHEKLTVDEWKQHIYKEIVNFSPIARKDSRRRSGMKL
Description: SAPK4 is assayed routinely by the phosphorylation of MBP. […] After washing and drying the papers (Alessi et al, 1995 Meth. Enzymol. 255, 279-290) ^32P radioactivity incorporated into MBP is measured.

SAPK3 = biological target: T2, SAPK3 (Rattus norvegicus, UniProt Q63538); test: Activation of transfected myc epitope-tagged SAPK3 in KB and 293 cells, immunoprecipitation and MBP assay; type: cell-based, human
T2 construct: expressed in transfected cells; host or cells: human KB and 293 cells (vector pSG5)
T2 sequence (Q63538 1-367): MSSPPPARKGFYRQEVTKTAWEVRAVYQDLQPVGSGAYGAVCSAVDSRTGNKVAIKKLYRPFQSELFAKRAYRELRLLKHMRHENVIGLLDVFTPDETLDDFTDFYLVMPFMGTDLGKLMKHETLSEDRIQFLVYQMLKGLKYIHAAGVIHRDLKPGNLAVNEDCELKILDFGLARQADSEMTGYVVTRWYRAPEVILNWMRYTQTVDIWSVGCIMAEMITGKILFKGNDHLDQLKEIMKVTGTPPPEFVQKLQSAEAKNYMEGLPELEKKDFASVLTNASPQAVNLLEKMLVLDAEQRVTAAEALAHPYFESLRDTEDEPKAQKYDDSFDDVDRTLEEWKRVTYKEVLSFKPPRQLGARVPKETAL
Description: FIG. 11. SAPK3 is activated by cytokines and cellular stresses in KB and 293 cells. KB cells (A) or 293 cells (B) were transiently transfected with a DNA construct expressing a myc epitope-tagged SAPK3. Cells in DMEM were stimulated for 15 min with 0.5 M sorbitol (an osmotic shock), 20 ng/ml IL-1α, 100 ng/ml TNFa, 0.5 mM sodium arsenite (a chemical stress), 100 ng/ml of EGF or 300 ng/ml TPA, or for 30 min with […] anisomycin or 10 min with 100 ng/ml IGF-1. UV-C irradiation of cells was carried out at 60 J/m2 (KB cells) or 200 J/m2 (293 cells) and the cells then left for a further 30 min at 37° C. before lysis. The myc epitope-tagged SAPK3 was immunoprecipitated from cell lysates using the 9E10 monoclonal antibody and assayed with MBP as substrate. […] After UV-C irradiation, SAPK3 activity in the extracts was 0.18 U/mg (KB cells) and 0.1 U/mg (293 cells).
Cell culture and transient transfections. 293, KB and COS-7 cells were cultured in Dulbecco's modified Eagles' Medium (DMEM) supplemented with 10% foetal calf serum, at 37° C., in an atmosphere of 5% CO2. Transfections of 293 cells were carried out using the calcium-phosphate method. […]

MAPKAP-K3 = details: every mammalian cell so far examined; cited from earlier work

Compound: C[S+]([O-])c1ccc(-c2nc(-c3ccncc3)c(-c3ccc(F)cc3)[nH]2)cc1 (stereo not shown) [SB 203580]
- Inhibition of SAPK4 (SAPK4; bacterially expressed SAPK4 activated by SKK3 in vitro): not inhibited
- Inhibition of dephosphorylated form of SAPK4 (SAPK4; dephosphorylated form, <0.1% of the activity of the phosphorylated form, data not shown): failed to inhibit
- Prevention of activation of transfected SAPK3 by osmotic shock (SAPK3): did not prevent
- Suppression of stress- and cytokine-induced activation of MAPKAP-K3 (MAPKAP-K3): 80-95%
